Test results from article PMC3518395 (Nature communications, 2012).
Square brackets hold non-standard residues; d marks the D form.

Key:
αvβ3 = settings: cited from earlier work
[1] = target: integrin αvβ3 (Homo sapiens) (UniProt P06756); settings: cited from earlier work
[2] = target: T1, DNA:PNA-D5 (15 c(RGDfK) ligands) (also: 15 copies conjugated via PEG/squarate linker to LKγ-PNA:DNA scaffold); experiment: 125I-echistatin competitive displacement on C32 cells
T1 chain: cyclo(RGD[dF]K)

Molecule: Echistatin
- echistatin association constant for binding to αvβ3 integrin (αvβ3; published value, fixed in the fit): 3.33e+09 M
- Kd (αvβ3; read-out: Kd of echistatin for αvβ3): 0.3 nM

Molecule: echistatin (from UniProt P17347)
- Kd [1]: 0.3 nM

B1: integrin αvβ3 (protein)
chain 1: FNLDVDSPAEYSGPEGSYFGFAVDFFVPSASSRMFLLVGAPKANTTQPGIVEGGQVLKCDWSSTRRCQPIEFDATGNRDYAKDDPLEFKSHQWFGASVRSKQDKILACAPLYHWRTEMKQEREPVGTCFLQDGTKTVEYAPCRSQDIDADGQGFCQGGFSIDFTKADRVLLGGPGSFYWQGQLISDQVAEIVSKYDPNVYSIKYNNQLATRTAQAIFDDSYLGYSVAVGDFNGDGIDDFVSGVPRAARTLGMVYIYDGKNMSSLYNFTGEQMAAYFGFSVAATDINGDDYADVFIGAPLFMDRGSDGKLQEVGQVSVSLQRASGDFQTTKLNGFEVFARFGSAIAPLGDLDQDGFNDIAIAAPYGGEDKKGIVYIFNGRSTGLNAVPSQILEGQWAARSMPPSFGYSMKGATDIDKNGYPDLIVGAFGVDRAILYRARPVITVNAGLEVYPSILNQDNKTCSLPGTALKVSCFNVRFCLKADGKGVLPRKLNFQVELLLDKLKQKGAIRRALFLYSRSPSHSKNMTISRGGLMQCEELIAYLRDESEFRDKLTPITIFMEYRLDYRTAADTTGLQPILNQFTPANISRQAHILLDCGEDNVCKPKLEVSVDSDQKKIYIGDDNPLTLIVKAQNQGEGAYEAELIVSIPLQADFIGVVRNNEALARLSCAFKTENQTRQVVCDLGNPMKAGTQLLAGLRFSVHQQSEMDTSVKFDLQIQSSNLFDKVSPVVSHKVDLAVLAAVEIRGVSSPDHVFLPIPNWEHKENPETEEDVGPVVQHIYELRNNGPSSFSKAMLHLQWPYKYNNNTLLYILHYDIDGPMNCTSDMEINPLRIKISSLQTTEKNDTVAGQGERDHLITKRDLALSEGDIHTLGCGVAQCLKIVCQVGRLDRGKSAILYVKSLLWTETFMNKENQNHSYSLKSSASFNVIEFPYKNLPIEDITNSTLVTTNVTWGIQPAPMPV
chain 2: GPNICTTRGVSSCQQCLAVSPMCAWCSDEALPLGSPRCDLKENLLKDNCAPESIEFPVSEARVLEDRPLSDKGSGDSSQVTQVSPQRIALRLRPDDSKNFSIQVRQVEDYPVDIYYLMDLSYSMKDDLWSIQNLGTKLATQMRKLTSNLRIGFGAFVDKPVSPYMYISPPEALENPCYDMKTTCLPMFGYKHVLTLTDQVTRFNEEVKKQSVSRNRDAPEGGFDAIMQATVCDEKIGWRNDASHLLVFTTDAKTHIALDGRLAGIVQPNDGQCHVGSDNHYSASTTMDYPSLGLMTEKLSQKNINLIFAVTENVVNLYQNYSELIPGTTVGVLSMDSSNVLQLIVDAYGKIRSKVELEVRDLPEELSLSFNATCLNNEVIPGLKSCMGLKIGDTVSFSIEAKVRGCPQEKEKSFTIKPVGFKDSLIVQVTFDCDCACQAQAEPNSHRCNNGNGTFECGVCRCGPGWLGSQCECSEEDYRPSQQDECSPREGQPVCSQRGECLCGQCVCHSSDFGKITGKYCECDDFSCVRYKGEMCSGHGQCSCGDCLCDSDWTGYYCNCTTRTDTCMSSNGLLCSGRGKCECGSCVCIQPGSYGDTCEKCPTCPDACTFKKECVECKKFDRGALHDENTCNRYCRDEIESVKELKDTGKDAVNCTYKNEDDCVVRFQYYEDSSGKSILYVVEEPECPKGPD
- Kd [2]: 0.16 nM
